Assay results: patent publication US6528245B2, “Bone marrow cells as a source of neurons for brain and spinal cord repair” (University of South Florida, priority 1998, dated 2003)

What was measured:
MSCs = settings: 1 μg/ml, alone; cited from earlier work
human BMSC = test: In vitro differentiation of human BMSC; immunocytochemistry and Western blot; type: cell-based; settings: replated in medium containing the mitogen
Source text: To briefly summarize, BMSC were separated from whole bone marrow of the mouse, calf and humans.
BMSC were isolated from residual bone marrow material (bone chips with adherent stromal cells, fatty tissue and debris) which was retained on the nylon mesh filters routinely used in filtering freshly procured human marrow to be used for bone marrow transplantation. The filtrate contains the bulk of the bone marrow hematopoietic elements that is then processed for human bone marrow replacement. We use the filters that were usually discarded. The filters were back washed five times with PBS. The PBS solution was centrifuged to deposit the heavier bone chips. The supernatant was resuspended in culture medium and plated in tissue culture flasks (as in Example 1). BMSC were separated by their adherence to plastic culture flasks, whereas the smaller hematopoietic stem cells remained suspended in the media and were removed when the culture media was replaced with fresh media. […]
After 7 days, expressions of neuronal markers (Nestin, Neuron Specific Nuclear protein or NeuN and GFAP) and a bone marrow stromal cell marker (fibronectin) were analyzed by Western blot analysis and immunocytochemistry (FIG. 6). […]

Molecule | differentiation of MSCs into myoblasts and myotubes (MSCs) | proliferation and differentiation of human bone marrow cells (human BMSC)
C[C@@H]1[C@H](O)[C@@H](C)/C=C/C=C/C=C/C=C/C=C/C=C/C=C/[C@H](O[C@@H]2O[C@H](C)[C@@H](O)[C@H](N)[C@@H]2O)C[C@@H]2O[C@](O)(C[C@@H](O)C[C@@H](O)[C@H](O)CC[C@@H](O)C[C@@H](O)CC(=O)O[C@H]1C)C[C@H](O)[C@H]2C(=O)O [amphotericin B] | differentiate into myoblasts and myotubes | –
EGF: epidermal growth factor, mitogen used at 10 ng/ml (NSDSECPLSHDGYCLHDGVCMYIEALDKYACNCVVGYIGERCQYRDLKWWELR; Epidermal growth factor; UniProt P01133 971-1023, looked up) | – | proliferation of cells, without significant induction of differentiation
